Read-outs that look alike come from different tables or passages of the source.
What was measured:
[1] = molecular target: T1, LuxR (Aliivibrio fischeri, UniProt P35327); experiment: LuxR agonism reporter assay; format: cell-based, Vibrio fischeri
[2] = molecular target: T2, LasR (Pseudomonas aeruginosa, UniProt P25084); experiment: LasR agonism reporter gene assay, E. coli DH5α; format: cell-based
[3] = molecular target: T1, LuxR; experiment: LuxR antagonism reporter assay; format: cell-based, Vibrio fischeri
[4] = molecular target: T1, LuxR; details: cited from earlier work
[5] = molecular target: T3, TraR (Agrobacterium tumefaciens, UniProt P33905); experiment: TraR antagonism reporter gene assay; format: cell-based
T3 sequence (P33905 whole entry): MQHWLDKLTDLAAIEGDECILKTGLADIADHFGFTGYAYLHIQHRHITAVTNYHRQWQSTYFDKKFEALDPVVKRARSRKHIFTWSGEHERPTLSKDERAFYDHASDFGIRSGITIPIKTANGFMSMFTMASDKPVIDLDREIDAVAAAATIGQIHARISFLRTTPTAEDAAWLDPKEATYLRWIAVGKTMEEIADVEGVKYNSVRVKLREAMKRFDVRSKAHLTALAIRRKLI

[6] = molecular target: T3, TraR; details: shown previously; cited from earlier work
[7] = molecular target: T2, LasR; details: read-out: EC50 E. coli LasR; controls; compound alone; ref 5a; cited from earlier work
[8] = molecular target: T2, LasR; details: shown previously; cited from earlier work
[9] = molecular target: T1, LuxR; details: shown previously; cited from earlier work

T2 sequence (P25084 whole entry): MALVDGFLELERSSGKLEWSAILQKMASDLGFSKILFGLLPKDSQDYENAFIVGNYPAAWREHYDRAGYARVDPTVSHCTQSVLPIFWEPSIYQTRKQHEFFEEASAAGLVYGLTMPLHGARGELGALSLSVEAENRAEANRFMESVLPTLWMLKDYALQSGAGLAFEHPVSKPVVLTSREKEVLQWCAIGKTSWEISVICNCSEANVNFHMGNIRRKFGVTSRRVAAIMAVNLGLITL
T1 sequence (P35327 whole entry): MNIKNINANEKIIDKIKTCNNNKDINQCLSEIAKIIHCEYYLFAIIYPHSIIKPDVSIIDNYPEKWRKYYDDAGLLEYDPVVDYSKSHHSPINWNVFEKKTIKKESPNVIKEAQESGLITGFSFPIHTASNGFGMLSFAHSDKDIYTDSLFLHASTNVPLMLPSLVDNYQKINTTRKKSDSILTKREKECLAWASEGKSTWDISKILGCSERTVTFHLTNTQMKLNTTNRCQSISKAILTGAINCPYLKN

O=C(Cc1cc(C(F)(F)F)cc(C(F)(F)F)c1)N[C@H]1CCOC1=O [E9, 3,5-CF3 PHL]
EC50 [1]: 370 nM

O=C(CCc1ccc2c(c1)OCO2)N[C@H]1CCOC1=O [E39]
EC50 [2]: > 10000 nM

O=C(Cc1cccc(C(F)(F)F)c1)N[C@H]1CCOC1=O [E3, 3-CF3 PHL]
LuxR activation (in words) ([1]; Library E): failed to activate LuxR

O=C(CCc1cccc(C(F)(F)F)c1)N[C@H]1CCOC1=O [E36, 3-CF3 PPHL]
IC50 [3]: ~470 nM

O=C(Cc1cccc([N+](=O)[O-])c1)N[C@H]1CCOC1=O [compound 4, 3-NO2 PHL]
LuxR activation threshold level ([4]; previously reported LuxR activator): ~ 100%
EC50 ([4]; read-out: EC50 V. fischeri LuxR, controls, compound alone, ref 5a): 350 nM

O=C(CCc1ccc(C(F)(F)F)cc1)N[C@H]1CCOC1=O [E35, 4-CF3 PHHL]
IC50 [5]: ~250 nM
EC50 [2]: > 10000 nM

O=C(CCc1ccc(I)cc1)N[C@H]1CCOC1=O [E32]
EC50 [2]: > 10000 nM

O=C(COc1ccc(OC(F)(F)F)cc1)N[C@H]1CCOC1=O [compound 6, 4-OCF3 POHL]
TraR inhibition (in words) [6]: strong
EC50 [7]: 6300 nM
LasR inhibition (in words) [8]: moderate

O=C(COc1ccc([N+](=O)[O-])cc1)N[C@H]1CCOC1=O [E24, 4-NO2 POHL]
IC50 [5]: ~250 nM

O=C(Cc1ccc(SC(F)(F)F)cc1)N[C@H]1CCOC1=O [E8, 4-SCF3 PHL]
EC50 [2]: 3400 nM

O=C(CCc1ccccc1)NC1CCOC1=O (centres unmarked) [compound 7, non-substituted PPHL]
LuxR inhibition (in words) [9]: minimal activity
TraR inhibition (in words) [6]: minimal activity
LasR inhibition (in words) [8]: minimal activity

O=C(CCc1cccc(I)c1)N[C@H]1CCOC1=O [E33, 3-I PPHL]
IC50 [3]: ~470 nM

O=C(CCc1cccc(Br)c1)N[C@H]1CCOC1=O [E31, 3-Br PPHL]
IC50 [3]: ~470 nM

N#Cc1cccc(CC(=O)N[C@H]2CCOC2=O)c1 [E5, 3-CN PHL]
EC50 [1]: 300 nM

O=C(CCc1ccc(Br)cc1)N[C@H]1CCOC1=O [compound 8, 4-bromo PPHL]
LuxR inhibition (in words) [9]: potent inhibitor
TraR inhibition (in words) [6]: potent inhibitor
LasR inhibition (in words) [8]: potent inhibitor
